Measured values: article PMC12345137 (mBio, 2025)
Where “and” joins values, the source holds several entries; their conditions need not be identical. Equal entries are not always repeated. Where two headings read alike, the source gives them in different places. Positions of bridges follow the written chain, without caps; N, C: chain ends. Residues, ends and D or L forms follow the SMILES beside them.

What was measured:
S. epidermidis agr-I = S. epidermidis agr-I (Staphylococcus epidermidis, UniProt Q5HMY3); assay: cell-based; assay type: cell-based; details: for QS interaction in words (inhibition / activation), S. epidermidis agr-I: fluorescent reporter strain, peptides tested at 1000, 50, 2.5, 0.125 nM or in dose-response
Procedure: Peptides were evaluated for the ability to interfere with agr-mediated quorum sensing in S. aureus (AH1677, AH430, AH1747, and AH1872 for agr-I–IV, respectively) ([40]) using reporter strains expressing yellow fluorescent protein (YFP) upon agr activation. Interference with agr-mediated quorum sensing in S. epidermidis (AH3408, AH3623, and AH3409 for agr-I–III, respectively) ([45]), and S. lugdunensis (AH4031 for agr-I) ([37]) was evaluated using reporter strains expressing superfolder green fluorescent protein (sGFP) upon agr activation. Overnight cultures of the reporter strains were grown in TSB medium containing chloramphenicol (CAM, 10 μg/mL for S. aureus) or erythromycin (ERM, 10 μg/mL of S. epidermidis and S. lugdunensis) and diluted 1:100 in fresh TSB medium containing the same antibiotic. Assays were performed in sterile black 96-well plates with a clear bottom. […] DMSO stock solutions of peptides (1 mM) were diluted in TSB media and added (15 μL) in technical triplicate to the 96-well plate, followed by diluted bacterial overnight cultures (135 μL). […] Wells containing 150 μL TSB medium were used to measure background fluorescence. The 96-well plates were incubated in a humidified incubator at 37°C shaking at 1,000 rpm for 22–24 h and fluorescence (for GFP: excitation 479 nm, emission 520 nm; for YFP: excitation 500 nm, emission 541 nm; automatic gain), and OD600 values were subsequently measured using a plate reader. Background fluorescence was subtracted from all wells and further normalized to the corresponding OD600 value of the respective wells. The average fluorescence of control wells was used as a relative measure for 100% activation of the agr-circuit, and bar graphs were generated using GraphPad Prism 10.4 software. All assays were performed in at least a biological duplicate.
Overnight cultures of the reporter strains were grown in TSB medium containing chloramphenicol (CAM, 10 μg/mL for S. aureus) or erythromycin (ERM, 10 μg/mL of S. epidermidis and S. lugdunensis) and diluted 1:100 in fresh TSB medium containing the same antibiotic. Assays were performed in sterile black 96-well plates with clear bottoms. Peptide solutions (15 μL) in 1:5 serial dilutions from DMSO stock solutions (1 mM) in TSB medium were added to the 96-well plate in technical duplicate followed by diluted bacterial overnight cultures (135 μL). […] Wells containing 150 μL TSB medium were used to measure background fluorescence. The 96-well plates were incubated in a humidified incubator at 37°C shaking at 1,000 rpm for 22–24 h and fluorescence (for GFP: excitation 479 nm, emission 520 nm; for YFP: excitation 500 nm, emission 541 nm; automatic gain), and OD600 values were subsequently measured using a plate reader. Background fluorescence was subtracted from all wells and further normalized to the corresponding OD600 value of the respective wells. The average fluorescence of control wells was used as a relative measure for 100% activation of the agr-circuit. Relative agr activity was plotted to obtain IC50 values by non-linear regression with variable slope using GraphPad Prism 10.4 software. All assays were performed in biological triplicate.

SA AgrC-I [1] = target: T1, SA AgrC-I (Staphylococcus aureus, UniProt O07911)
SA AgrC-II = SA AgrC-II (Staphylococcus aureus, UniProt O33587)
SA AgrC-III = SA AgrC-III (Staphylococcus aureus, UniProt O33590); details: 100 nM cognate AIP, ± SEM, determined previously, ref (1), cited from earlier work
SA AgrC-IV = SA AgrC-IV (Staphylococcus aureus, UniProt Q309Z2)
S. aureus (SA) agr-I = details: b-lactamase, cited from earlier work
S. aureus (SA) agr-II = test system: S. aureus (SA) agr-II; design: method as in ref (5) (a number printed in a supplementary file, which may have a reference list of its own: not looked up in the article's list); details: hemolysis; ref (5); cited from earlier work
SA AgrC-I [2] = target: T1, SA AgrC-I; assay: β-Lactamase assay, reporter strain RN10829 (P2-agrA:P3-blaZ) with pagrC-I; assay type: cell-based
Summary of the method: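 S. aureus RN10829 (P2-agrA:P3-blaZ) expressing AgrC-I from plasmid, grown in TSB to OD600 0.35–0.40, treated with peptides (10 μM–10 pM) plus cognate AIP (100 nM) for 1 h at 37°C, 200 rpm.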

[3] = 100 nM cognate AIP; ± SEM; -b = no inhibition recorded at the highest AIP concentration tested; determined previously; ref (1); read-out: IC50, SA AgrC-II, b-lactamase assay; cited from earlier work

Chain of SA AgrC-IV (Q309Z2 entry or part of it): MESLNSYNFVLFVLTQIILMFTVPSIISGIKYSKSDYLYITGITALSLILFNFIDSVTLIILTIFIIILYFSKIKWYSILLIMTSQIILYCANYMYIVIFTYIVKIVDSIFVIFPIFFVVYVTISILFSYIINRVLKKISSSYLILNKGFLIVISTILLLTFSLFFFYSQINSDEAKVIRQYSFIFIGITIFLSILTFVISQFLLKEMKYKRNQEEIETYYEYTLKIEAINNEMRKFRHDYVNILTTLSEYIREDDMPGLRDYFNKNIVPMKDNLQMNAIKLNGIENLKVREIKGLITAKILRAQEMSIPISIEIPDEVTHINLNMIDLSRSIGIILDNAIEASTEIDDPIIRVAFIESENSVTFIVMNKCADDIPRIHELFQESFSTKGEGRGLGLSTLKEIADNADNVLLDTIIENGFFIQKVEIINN
Chain of SA AgrC-II (O33587 entry or part of it): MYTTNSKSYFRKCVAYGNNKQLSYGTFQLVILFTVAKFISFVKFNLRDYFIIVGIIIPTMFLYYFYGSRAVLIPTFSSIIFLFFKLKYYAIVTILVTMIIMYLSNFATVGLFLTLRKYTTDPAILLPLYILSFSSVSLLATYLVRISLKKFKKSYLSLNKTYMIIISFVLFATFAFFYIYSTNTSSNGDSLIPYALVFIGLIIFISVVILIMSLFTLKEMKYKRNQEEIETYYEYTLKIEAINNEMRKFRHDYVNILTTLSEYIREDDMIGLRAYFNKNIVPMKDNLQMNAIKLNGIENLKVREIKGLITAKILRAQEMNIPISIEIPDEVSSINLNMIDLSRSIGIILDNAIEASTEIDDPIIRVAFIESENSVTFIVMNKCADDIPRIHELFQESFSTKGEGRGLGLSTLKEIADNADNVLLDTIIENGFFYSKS
Chain of S. epidermidis agr-I (Q5HMY3 entry or part of it): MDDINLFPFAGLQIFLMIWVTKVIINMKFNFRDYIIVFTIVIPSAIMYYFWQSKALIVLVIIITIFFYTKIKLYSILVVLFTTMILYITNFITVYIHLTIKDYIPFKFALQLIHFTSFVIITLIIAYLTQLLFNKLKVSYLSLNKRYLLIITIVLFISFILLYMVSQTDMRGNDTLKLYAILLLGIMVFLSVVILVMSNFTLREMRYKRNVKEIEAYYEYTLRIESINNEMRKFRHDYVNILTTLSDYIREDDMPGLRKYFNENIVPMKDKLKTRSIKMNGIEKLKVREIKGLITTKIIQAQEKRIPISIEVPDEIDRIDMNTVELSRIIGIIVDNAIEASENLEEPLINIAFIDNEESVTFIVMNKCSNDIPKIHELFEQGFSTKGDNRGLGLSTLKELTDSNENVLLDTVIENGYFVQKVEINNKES
T1 sequence (O07911 entry or part of it): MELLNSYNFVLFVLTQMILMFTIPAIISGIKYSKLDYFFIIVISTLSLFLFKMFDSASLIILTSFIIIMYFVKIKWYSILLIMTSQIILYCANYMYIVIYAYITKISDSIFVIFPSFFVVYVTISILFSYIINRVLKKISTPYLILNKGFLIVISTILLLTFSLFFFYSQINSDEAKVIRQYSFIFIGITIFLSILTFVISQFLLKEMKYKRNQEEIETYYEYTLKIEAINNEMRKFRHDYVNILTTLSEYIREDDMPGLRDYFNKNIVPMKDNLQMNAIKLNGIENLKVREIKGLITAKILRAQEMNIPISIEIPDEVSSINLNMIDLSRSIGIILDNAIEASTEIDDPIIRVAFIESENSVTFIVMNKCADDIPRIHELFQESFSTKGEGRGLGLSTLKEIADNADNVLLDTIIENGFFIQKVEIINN
Chain of SA AgrC-III (O33590 entry or part of it): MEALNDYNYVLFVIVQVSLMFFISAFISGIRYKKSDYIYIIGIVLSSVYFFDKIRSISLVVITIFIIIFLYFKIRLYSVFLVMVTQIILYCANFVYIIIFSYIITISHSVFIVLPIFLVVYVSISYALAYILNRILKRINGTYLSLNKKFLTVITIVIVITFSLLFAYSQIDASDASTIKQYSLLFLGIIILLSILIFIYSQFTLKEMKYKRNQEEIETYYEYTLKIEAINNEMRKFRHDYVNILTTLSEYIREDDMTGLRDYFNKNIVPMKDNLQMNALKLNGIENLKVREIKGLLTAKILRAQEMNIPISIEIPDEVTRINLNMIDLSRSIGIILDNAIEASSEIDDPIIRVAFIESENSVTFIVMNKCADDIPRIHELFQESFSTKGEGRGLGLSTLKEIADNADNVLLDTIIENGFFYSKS

S. aureus AIP-III D4A [compound 57, reference compound]
QS interaction in words (inhibition / activation), S. epidermidis agr-I (S. epidermidis agr-I): weak interference
IC50 (SA AgrC-I [1]; 100 nM cognate AIP; ± SEM; -b = no inhibition recorded at the highest AIP concentration tested; determined previously; ref (1); read-out: IC50, SA AgrC-I, b-lactamase assay; cited from earlier work): 3.3 ± 0.7 nM
IC50 (SA AgrC-II; [3]): 34 ± 1 nM
IC50 (SA AgrC-III; only partial inhibition observed, read-out: IC50, SA AgrC-III, b-lactamase assay, only partial inhibition observed (footnote a)): 1.6 ± 0.2 nM
IC50 (SA AgrC-IV; 100 nM cognate AIP; ± SEM; -b = no inhibition recorded at the highest AIP concentration tested; determined previously; ref (1); read-out: IC50, SA AgrC-IV, b-lactamase assay; cited from earlier work): 10 ± 0.2 nM
IC50 (S. aureus (SA) agr-I; ref (8)): 0.16 ± 0.01 nM
IC50 (S. aureus (SA) agr-II): 0.06 nM

CC(C)C[C@@H]1NC(=O)[C@@H](NC(=O)[C@@H]2CCCN2C(=O)[C@H](CC(N)=O)NC(=O)[C@H](Cc2ccc(O)cc2)NC(=O)[C@@H](N)CCCCN)CSC(=O)[C@H](CC(C)C)NC(=O)[C@H](Cc2ccccc2)NC(=O)CNC1=O [compound 32, S. simulans AIP-I] (H-KYNPCLGFL; thioester 5-C; N-terminus assumed)
IC50 (S. epidermidis agr-I): 0.74 ± 0.01 nM
IC50 (SA AgrC-I [1]; read-out: IC50, SA AgrC-I, b-lactamase assay; 100 nM cognate AIP; ± SEM; -b = no inhibition recorded at the highest AIP concentration tested; determined previously; ref (1); cited from earlier work): 8.6 ± 0.5 nM
IC50 (SA AgrC-II; read-out: IC50, SA AgrC-II, b-lactamase assay; 100 nM cognate AIP; ± SEM; -b = no inhibition recorded at the highest AIP concentration tested; determined previously; ref (1); cited from earlier work): 23 ± 2 nM
IC50 (SA AgrC-III; read-out: IC50, SA AgrC-III, b-lactamase assay, -b = no inhibition recorded at the highest AIP concentration tested): 50 ± 11 nM
IC50 (SA AgrC-IV; read-out: IC50, SA AgrC-IV, b-lactamase assay; 100 nM cognate AIP; ± SEM; -b = no inhibition recorded at the highest AIP concentration tested; determined previously; ref (1); cited from earlier work): 280 ± 66 nM

NCCCC[C@H](N)C(=O)N[C@@H](Cc1ccc(O)cc1)C(=O)N[C@@H](Cc1ccc(O)cc1)C(=O)N1CCC[C@H]1C(=O)N[C@H]1CSC(=O)[C@H](Cc2ccccc2)NC(=O)[C@H](Cc2ccc(O)cc2)NC(=O)CNC(=O)[C@H](Cc2c[nH]c3ccccc23)NC1=O [compound 33, S. simulans AIP-II] (H-KYYPCWGYF; thioester 5-C)
IC50 (S. epidermidis agr-I): 0.31 ± 0.06 nM
QS interaction in words (inhibition / activation), S. epidermidis agr-I (S. epidermidis agr-I): inhibited
IC50 (SA AgrC-I [2]): 1.9 ± 0.3 nM

NCCCC[C@H](N)C(=O)N[C@@H](Cc1ccc(O)cc1)C(=O)N[C@@H](CC(N)=O)C(=O)N1CCC[C@H]1C(=O)N[C@H]1CSC(=O)[C@H](Cc2ccccc2)NC(=O)[C@H](Cc2ccc(O)cc2)NC(=O)CNC(=O)[C@H](Cc2c[nH]c3ccccc23)NC1=O [compound 34, S. simulans AIP-III] (H-KYNPCWGYF; thioester 5-C)
IC50 (S. epidermidis agr-I): 0.14 ± 0.03 nM
IC50 (SA AgrC-I [2]): 1.6 ± 0.1 nM

CC[C@H](C)[C@@H]1NC(=O)[C@H](Cc2ccccc2)NC(=O)[C@H](CC(=O)O)NC(=O)[C@@H](NC(=O)[C@@H](NC(=O)[C@H](CO)NC(=O)[C@@H](N)Cc2ccc(O)cc2)[C@@H](C)O)CSC(=O)[C@H](CCSC)NC1=O [compound 1, S. aureus AIP-I] (H-YSTCDFIM; thioester 4-C)
IC50 (S. epidermidis agr-I): > 1000 nM
EC50 (SA AgrC-I [1]; ± SEM; determined previously; ref (1); read-out: EC50, SA AgrC-I, b-lactamase assay; cited from earlier work): 5.4 ± 0.5 nM
IC50 (SA AgrC-II; [3]): 700 ± 165 nM
IC50 (SA AgrC-III; -b = no inhibition recorded at the highest AIP concentration tested, read-out: IC50, SA AgrC-III, b-lactamase assay): 80 ± 11 nM
EC50 (SA AgrC-IV; ± SEM; determined previously; ref (1); read-out: EC50, SA AgrC-IV, b-lactamase assay; cited from earlier work): 790 ± 66 nM
EC50 (S. aureus (SA) agr-I; ref (3)): 40 nM and 23 nM
EC50 (S. aureus (SA) agr-I; ref (4)): 28 nM
EC50 (S. aureus (SA) agr-I; ref (6)): 11 nM
EC50 (S. aureus (SA) agr-I; ref (7)): 3.21 nM
IC50 (S. aureus (SA) agr-II): 3.34 nM
